Laboratory results as given in patent publication US6936600B2, “Sorbitol dehrydrogenase inhibitors” (Pfizer Inc, priority 1999, dated 2005).

Row | Structure (SMILES) | melting point
1 | C[C@@H]1CN(c2ncnc(N3CCOCC3)n2)C[C@H](C)N1c1ccnc([C@@H](C)O)n1 [Example 212, 1R-{4-[2R,6S-Dimethyl-4-(4-morpholino-4-yl-[1,3,5]triazin-2-yl)-piperazin-1-yl]-pyrimidin-2-yl}-ethanol] | 78 to 82 °C
2 | C[C@@H](O)c1nccc(N2CCC(=Cc3cccc(Cl)c3)CC2)n1 [Example 176, (R)-1-{4-[4-(3-Chlorobenzylidene)-piperidin-1-yl]-pyrimidin-2-yl}-ethanol] | 45 to 55 °C
3 | C[C@@H](O)c1nccc(N2CCC(=C(c3ccccc3)c3ccccn3)CC2)n1 [Example 181] | 98 to 101 °C
4 | COc1nc(CO)nc(N2[C@H](C)CN(c3ccnc([C@@H](C)O)n3)C[C@@H]2C)n1 [Example 236, 1R-{4-[4-(4-Hydroxymethyl-6-methoxy-[1,3,5]triazin-2-yl)-3R,5S-dimethyl-piperazin-1-yl]-pyrimidin-2-yl}-ethanol] | 170 to 171 °C
5 | C[C@@H]1CN(c2ccnc([C@@H](C)O)n2)C[C@H](C)N1C(=O)C1CCCCC1 [Example 131, Cyclohexyl-{4-[2-(1R-hydroxy-ethyl)-pyrimidin-4-yl]-2R,6S-dimethyl-piperazin-1-yl}-methanone] | 174 to 175 °C
6 | C[C@@H](O)c1nccc(N2CCc3nc(-c4ccccc4)ncc3C2)n1 [Example 257] | 128 to 131 °C
7 | C[C@@H]1CN(c2ccnc([C@@H](C)O)n2)CCN1c1ccnc([C@@H](C)O)n1 [Example 39, 1R-(4-{4-[2-(1R-Hydroxy-ethyl)-pyrimidin-4-yl]-2R-methyl-piperazin-1-yl}-pyrimidin-2-yl)-ethanol] | 155 to 157 °C
8 | Cc1nc2c(c(Sc3ccccc3)n1)CCN(c1ccnc([C@@H](C)O)n1)C2 [Example 98] | 103 to 105 °C
9 | C[C@@H]1CN(c2ccnc(C(C)(C)O)n2)C[C@H](C)N1c1ccnc([C@@H](C)O)n1 [Example 34, 2-(4-{4-[2-(1R-Hydroxy-ethyl)-pyrimidin-4-yl]-3R,5S-dimethyl-piperazin-1-yl}-pyrimidin-2-yl)-propan-2-ol] | 138 to 140 °C
10 | C[C@@H](O)c1nccc(N2C[C@@H]3C[C@H]2CN3S(=O)(=O)N(C)C)n1 [Example 120] | 110 to 111 °C
11 | C[C@@H](O)c1nccc(N2CCC(O)(c3ccccc3)CC2)n1 [Example 175, (R)-4-Phenyl-1-[2-(1-hydroxy-ethyl)-pyrimidin-4-yl]-piperidin-4-ol] | 114 °C
12 | C[C@@H]1CN(c2ccnc([C@@H](C)O)n2)[C@@H](C)CN1c1ccnc([C@@H](C)O)n1 [Example 4, 1R-(4-{4-[2-(1R-Hydroxy-ethyl)-pyrimidin-4-yl]-2R,S-dimethyl-piperazin-1-yl}-pyrimidin-2-yl)-ethanol] | 153 to 155 °C
13 | C[C@@H]1CN(C(=O)/C=C/c2cc3ccccc3o2)C[C@H](C)N1c1ccnc([C@@H](C)O)n1 [Example 130, (E)-3-Benzofuran-2-yl-1-{4-[2-(1R-hydroxy-ethyl)-pyrimidin-4-yl]-2R,6S-dimethyl-piperazin-1-yl}-propenone] | 80 to 82 °C
14 | C[C@@H]1CN(c2ccnc([C@@H](C)O)n2)C[C@H](C)N1c1ccnc(N2CCN(C)CC2)n1 [Example 208, 1R-(4-{3R,5S-Dimethyl-4-[2-(4-methyl-piperazin-1-yl)-pyrimidin-4-yl]-piperazin-1-yl}-pyrimidin-2-yl)-ethanol] | 181 to 182 °C
15 | C[C@@H](O)c1nccc(N2CCN(S(=O)(=O)/C=C/c3ccccc3)CC2)n1 [Example 111, (E)-1-R{4-[4-(2-phenyl-ethenesulfonyl)-piperazin-1-yl]-pyrimidin-2-yl}-ethanol] | 68 to 70 °C
16 | C[C@@H](O)c1nccc(N2CCc3c(nc(-c4ccccc4)nc3-c3ccccc3)C2)n1 [Example 91] | 73 to 75 °C
17 | CC(=O)c1nccc(N2[C@H](C)CN(c3ccnc([C@@H](C)O)n3)C[C@@H]2C)n1 [Example 45, 1-(4-{4-[2-(1R-Hydroxy-ethyl)-pyrimidin-4-yl]-2R,6S-dimethyl-piperazin-1-yl}-pyrimidin-2-yl)-ethanone] | 123 to 127 °C
18 | O=S(=O)(N1CCCCC1)N1CCN(c2ccnc(CO)n2)CC1 [Example 123] | 141 to 142 °C
19 | C[C@@H](O)c1nccc(N2CCc3ccc(S(=O)(=O)N(C)C)cc3C2)n1 [Example 247, (R)-2-[2-(1-Hydroxy-ethyl)-pyrimidin-4-yl]-1,2,3,4-tetrahydro-isoquinoline-7-sulfonic acid dimethylamide] | 120.5 to 122 °C
